# Values of other authors as cited in patent US20020122835A1, “Compositions for enhancing muscle tissue recovery and repair” (priority 2001, published 2002).
# Experiments:
# [1] = oral administration, human volunteers; Kobayashi et al 1998
smiles,measurement,setting,value
CCNC(=O)CC[C@H](N)C(=O)O [L-theanine],safety in animal experiments,,safe
same,feeling of relaxation,[1],caused a feeling of relaxation
